For experiment [1], the system named is A549 cells. Put plainly: Cy3-Glc-α intracellular uptake efficiency, confocal laser scanning microscope (CLSM). The experiment is classed as cell-based, human. The settings on record: CLSM live-cell imaging. How it is done:
1×10^4 cells were cultured on a Lab-Tek glass chamber slide (Nalge Nunc International, Naperville, Ind., USA) in 35 mm cell culture dish. After 24 h, the glass chamber slide was taken from culture dish and loaded on chamber. Then, the chamber was attached to the microscope. The temperature of the chamber was maintained at 37° C. After injection of 12.5 μM of Cy3-Glc-α in RPMI 1640 in the chamber, the fluorescent image was taken every 60 sec, digitized, and saved on a computer for later analysis.
(1) To evaluate the applicability of the fluorescent glucose analogue (Cy3-Glc-α) of the present invention, finally obtained in Example 1, as a bioprobe, the intracellular uptake efficiency of Cy3-Glc-α was measured by using a confocal laser scanning microscope (CLSM).
(2) In addition, the experiment was performed by using the confocal laser scanning microscope to measure the optimum incubation time required to achieve the maximum uptake of the analogue Cy3-Glc-α.

For experiment [2], the system named is A549 cells. Put plainly: Probe uptake by A549 cells, inverted fluorescent microscope (α/β anomers, alanine, 2-NBDG comparison). It counts as cell-based, human. As to the method: 1×10^4 cells were cultured on a Lab-Tek glass chamber slide (Nalge Nunc International, Naperville, Ind., USA) in 35 mm cell culture dish. After 24 h, the cells were treated for each experimental purpose. Then, the medium was replaced with RPMI 1640 medium containing 12.5 μM of Cy3-Glc-α. The cells were exposed to Cy3-Glc-α for 40 min, then washed with PBS 3 times. Finally, the glass chamber slide was taken from culture dish and loaded on the fluorescence microscope (Axiovert 200, Carl Zeiss, Germany). Fluorescence images of 35-50 cells were taken by CCD camera (Axiocam MRm, Germany) and fluorescence intensity of each cell was measured by Axiovision (program for data analysis). An area as ROIs (regions of interest) which contains a cell in phase-contrast image was drawn using Axiovision. Axiovision analyzed CCD camera images and provided the digitized mean of fluorescence intensity in the ROIs that the present inventors had established. The present inventors subtracted the background intensity from the fluorescence intensity to get the fluorescence intensity value that a cell contained. With the method described above, the present inventors digitized fluorescence intensity and performed various experiments.
To confirm the above hypothesis, real-time uptake of Cy3-Glc-α was measured, and the results were compared to those of Cy3-Glc-β by live imaging of A549 cells by using inverted fluorescent microscope. […] This led the present inventors to the conclusion that the stereochemistry at the C-1 anomeric position definitely influences the efficiency of mimicking glucose, and this might be due to the binding orientation of D-glucose in GLUTs [P. W. Hruz, M. M. Mueckler, Mole. Memb. Biol. 2001, 18, 183-193].
The cellular uptake of 2-NBDG was not detected under identical experimental conditions used for Cy3-Glc-α. […] To achieve the fluorescence intensity with 2-NBDG to 80% that of Cy3-Glc-α, a 10 fold increase in 2-NBDG concentration and a 20 fold increase in the lens exposure time in D-glucose-depleted medium were needed.
In addition, the cellular uptake of 2-NBDG in normal media (containing 10 mM D-glucose) was extremely low (>60% uptake reduction in normal media) and was hardly detected using fluorescent based imaging methods [R. G. O'Neil, L. Wu, N. Mullani, Mol. Imaging Biol. 2005, 7, 388-392]. 2-NBDG was detectable only in glucose-depleted media, and this means a critical limitation of bioapplication of 2-NBDG in the biologically significant environments. In comparison with 2-NBDG, the reduction of Cy3-Glc-α uptake in glucose-containing media was only 5% compared to that in glucose-depleted media (FIG. 18). Therefore, it was confirmed that Cy3-Glc-α was capable of being applied to a bioassay system regardless of glucose starvation.

Where only a bound is given, the exact number is not on record here.

On to `C[N+]1=C(/C=C/C=C2/N(CCCCC(=O)NCCOCCOCCNCCOC3OC(CO)C(O)C(O)C3O)c3ccccc3C2(C)C)C(C)(C)c2ccccc21` [Cy3-Glc-α, [2-(N-Cy3-3,6-dioxaoctane-1,8-diaminoethyl)]-α-D-glucose], for which, in the experiment on A549 cells [1], the “incubation time to maximum uptake” value is given as no more than 35 min. Moreover, the “uptake efficiency with or without alanine (osmotic pressure)” value with A549 cells [2] (55 mM alanine in media) is listed as “no difference in the uptake efficiency”. Further, the “reduction of uptake in glucose-containing media compared to glucose-depleted media” value in the experiment with A549 cells [2] (A549 cells) is recorded as 5%. Moreover, in the experiment with A549 cells [2] (A549 cells, live imaging), the “uptake of Cy3-Glc-α superior to that of Cy3-Glc-β” value is reported as 40%.

(Values after patent publication US8772463B2, “Fluorescent dye-labeled glucose bioprobe, synthesis method and usage thereof” (SNU R&DB Foundation, priority 2007, dated 2014).)
